The values that follow come from patent publication US8785459B2, “Quinazoline compounds as kinase inhibitors” (Development Center for Biotechnology, priority 2011, dated 2014).

The target of one data set is EGFR (T790M) kinase (Homo sapiens (Human), UniProt P00533, T790M). The data set can be described thus: EGFR (T790M) kinase assay. Format: biochemical. As to the method:
C. EGFR (T790M) Kinase Assay
Inhibition of EGFR (T790M) kinase activity by compounds disclosed herein was quantified by measuring the amount of [^33P] incorporated into the substrate in the presence of a test compound. Briefly, a reaction mixture of 25 μL final volume containing 25 ng of EGFR (T790M) kinase (EGFR (T790M) kinase domain alone, Millipore), 5 μg of the substrate [poly(Glu-Tyr), Sigma], kinase reaction buffer (10 mM MOPS pH 7.0, 0.3 mM EDTA, 0.5% glycerol, 0.001% Brij-35, 10 mM MnCl2, 0.1 mg/ml BSA, 100 μM ATP, 0.1 μCi per well [^33P]-γ-ATP (2,500-3,000 Ci/mmol)), and a test compound (100 nM; diluted with 4% DMSO) or DMSO (as the control) was incubated at 30° C. for 60 minutes. The reaction was stopped by adding 5 μL of 3% phosphoric acid solution. The resultant reaction solution was then harvested onto a filter plate (UniFilter-96 GF/B, PerkinElmer), washed 20 times for 5 min with d.d. […] The radioactivity retained on the filter membrane was measured by TopCount™ scintillation detector (PerkinElmer). The results were analyzed by using linear regression software (GraphPad Prism™ 4; GraphPad Software Inc.). The percentage of inhibition of EGFR (T790M) by the test compound was calculated by dividing the retained radioactivity of the test sample with the retained radioactivity of the control sample and shown in Table 4.

For the next data set, the system named is A375 tumor cells. Put plainly: In vivo anti-cancer activity, subcutaneous A375 tumor in NOD/SCID mice. The settings on record: A375 xenograft, 50 mg/kg i.p. qd x 28. On the procedure:
(§1) In Vivo Anti-Cancer Activities
(§2) A375 (1×10^6 cell/mouse) tumor cells were subcutaneously injected into the right flank of 5 week old male NOD/SCID mice (BioLASCO, Taiwan). Tumor volume was measured with a digital caliper once tumor was palpable (within 10 to 15 days after implantation). Compound treatment was started after 1-3 weeks when the tumors had reached an average volume of ˜50 to 100 mm^3. Mice were divided into 5 groups as listed in Table 6 below and were given intraperitoneal injections with the test compound at 50 mg/kg, or vehicle control (DMSO:Cremophor:PBS (pH 7.4)=[…]) one time every day. The test compound, 58, was formulated in a solution of 5% DMSO, 10% Cremophor, and 85% PBS. The positive control, PLX4032, was dissolved in 100% PBS. Body weights of the mice were measured every two to three days and the tumor sizes in different groups of mice were measured by digital caliper every two to three days.

A short description of data set [1]: Body weight of A375 tumor-bearing NOD/SCID mice under treatment. It counts as in vivo. As to conditions: A375 xenograft, 50 mg/kg i.p. qd x 28. On the procedure: as §1, §2

Chain of EGFR (T790M) kinase (P00533 712-979 T790M): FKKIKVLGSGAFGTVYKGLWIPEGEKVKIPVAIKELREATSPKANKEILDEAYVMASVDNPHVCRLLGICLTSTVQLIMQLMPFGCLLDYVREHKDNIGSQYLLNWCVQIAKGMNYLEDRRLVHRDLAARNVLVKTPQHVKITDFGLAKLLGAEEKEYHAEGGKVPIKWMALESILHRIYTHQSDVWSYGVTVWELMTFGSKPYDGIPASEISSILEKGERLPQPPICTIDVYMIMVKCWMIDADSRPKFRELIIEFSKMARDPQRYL

In general, inhibition refers to the change of the read-out against control, counted positive when it falls. Low readings indicate little suppression, high ones strong suppression. At EGFR (T790M) kinase, `COc1cc(-c2ccc3ncnc(Nc4cccc(O)c4)c3c2)ccc1O` [Compound 8, 4-(4-(3-hydroxyphenylamino)quinazolin-6-yl)-2-methoxyphenol] gave an inhibition at 1 µM of 66%.
On EGFR (T790M) kinase, `COc1cc(-c2ccc3ncnc(Nc4cc(O)ccc4F)c3c2)ccc1O` [Compound 58, 4-(4-(2-fluoro-5-hydroxyphenylamino)quinazolin-6-yl)-2-methoxyphenol] gave an inhibition at 1 µM of 60%. Moreover, the “tumor growth in vivo” value in the data set on A375 tumor cells is “inhibited tumor growth in vivo”. In data set [1], the weight loss entry is listed as “without inducing significant weight loss”.
